In article PMC4810081, “Venetoclax (ABT-199) Might Act as a Perpetrator in Pharmacokinetic Drug–Drug Interactions” (Pharmaceutics, 2016):

Legend:
OATP1B1 = target: T1, OATP1B1 (Homo sapiens, UniProt Q9Y6L6); test: OATP1B1 inhibition, 8-FcA uptake in HEK-OATP1B1 cells; type: in vitro ADME
T1 construct: expressed in transfected cells; host or cells: HEK293 (HEK-OATP1B1; gift of D. Keppler)
Description: HEK293 cells. For assessing inhibition of OATP1B1 and OATP1B3, the human embryonic kidney cell line HEK293 stably transfected with OATP1B1 (HEK-OATP1B1), OATP1B3 (HEK-OATP1B3), or the empty control vector (HEK293-VCG418) were used. Cells were cultured under standard cell culture conditions with DMEM supplemented with 10% FCS, 2 mM of glutamine, 100 U/mL of penicillin, 100 µg/mL of streptomycin sulfate, and 800 µg/mL of G418 to maintain over-expression. Cells were kindly provided by D. Keppler (German Cancer Research Centre, Heidelberg, Germany).
Inhibition of OATP1B1 and OATP1B3 was analyzed in HEK-OATP1B1 and HEK-OATP1B3 cells by quantifying the uptake of the fluorescent substrate 8-FcA by flow cytometry as described previously. HEK293-VCG418 cells were used as a control. Inhibition of OATPs leads to a reduced uptake of 8-FcA into the cells. Each experiment was performed at least in triplicate, and venetoclax was tested from 0.05 up to 100 µM.

BCRP = target: T2, BCRP (Homo sapiens, UniProt Q9UNQ0); test: BCRP inhibition, flow cytometric pheophorbide A assay in MDCKII-BCRP cells; type: in vitro ADME
T2 construct: expressed in transfected cells; host or cells: MDCKII-BCRP (gift of A. H. Schinkel and P. Borst)
From the text: MDCKII cells. The transporter over-expressing cell lines MDCKII-MDR1 [5], MDCKII-MRP2 [6], and MDCKII-BCRP [7] and the corresponding parental cell line MDCKII were used to assess the sensitivity of cells with and without P-gp, multidrug resistance-associated protein 2 (MRP2/ABCC2), or BCRP expression. Moreover, MDCKII-BCRP cells were used to assess BCRP inhibition by venetoclax. MDCKII over-expressing cell lines were kindly provided by A. H. Schinkel and P. Borst (Amsterdam, The Netherlands). The parental cell line MDCKII (available at ATCC, Manassas, VA, USA) was used as a control. The cells were cultured in Dulbecco’s Modified Eagle’s Medium (DMEM) containing 10% FCS, 2 mM of glutamine, 100 U/mL of penicillin, and 100 µg/mL of streptomycin sulfate.
Flow cytometric BCRP inhibition assays were conducted in control (MDCKII) and BCRP over-expressing cells (MDCKII-BCRP) using PhA as a fluorescent BCRP substrate as described and validated previously. Inhibition of BCRP leads to an increase in intracellular PhA concentrations. Each experiment was performed in triplicate. Venetoclax was tested from 0.1 up to 100 µM.

T2 sequence (Q9UNQ0 whole entry): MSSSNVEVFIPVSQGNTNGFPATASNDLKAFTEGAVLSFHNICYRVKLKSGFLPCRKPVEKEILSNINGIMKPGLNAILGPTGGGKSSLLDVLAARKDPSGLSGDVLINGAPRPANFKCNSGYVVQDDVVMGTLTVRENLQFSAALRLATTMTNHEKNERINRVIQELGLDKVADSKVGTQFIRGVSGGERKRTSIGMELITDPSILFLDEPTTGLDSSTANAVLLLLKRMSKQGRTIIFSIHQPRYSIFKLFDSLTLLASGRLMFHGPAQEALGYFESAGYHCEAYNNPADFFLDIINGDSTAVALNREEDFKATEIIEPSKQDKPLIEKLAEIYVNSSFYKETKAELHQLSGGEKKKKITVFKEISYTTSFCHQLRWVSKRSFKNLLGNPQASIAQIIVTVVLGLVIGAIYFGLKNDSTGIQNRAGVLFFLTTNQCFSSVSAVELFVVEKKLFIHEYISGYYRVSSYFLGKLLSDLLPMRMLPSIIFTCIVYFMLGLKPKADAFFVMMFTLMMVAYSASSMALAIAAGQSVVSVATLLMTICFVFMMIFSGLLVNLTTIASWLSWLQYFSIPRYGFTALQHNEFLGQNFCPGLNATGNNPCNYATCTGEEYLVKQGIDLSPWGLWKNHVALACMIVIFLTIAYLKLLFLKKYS
T1 sequence (Q9Y6L6 whole entry): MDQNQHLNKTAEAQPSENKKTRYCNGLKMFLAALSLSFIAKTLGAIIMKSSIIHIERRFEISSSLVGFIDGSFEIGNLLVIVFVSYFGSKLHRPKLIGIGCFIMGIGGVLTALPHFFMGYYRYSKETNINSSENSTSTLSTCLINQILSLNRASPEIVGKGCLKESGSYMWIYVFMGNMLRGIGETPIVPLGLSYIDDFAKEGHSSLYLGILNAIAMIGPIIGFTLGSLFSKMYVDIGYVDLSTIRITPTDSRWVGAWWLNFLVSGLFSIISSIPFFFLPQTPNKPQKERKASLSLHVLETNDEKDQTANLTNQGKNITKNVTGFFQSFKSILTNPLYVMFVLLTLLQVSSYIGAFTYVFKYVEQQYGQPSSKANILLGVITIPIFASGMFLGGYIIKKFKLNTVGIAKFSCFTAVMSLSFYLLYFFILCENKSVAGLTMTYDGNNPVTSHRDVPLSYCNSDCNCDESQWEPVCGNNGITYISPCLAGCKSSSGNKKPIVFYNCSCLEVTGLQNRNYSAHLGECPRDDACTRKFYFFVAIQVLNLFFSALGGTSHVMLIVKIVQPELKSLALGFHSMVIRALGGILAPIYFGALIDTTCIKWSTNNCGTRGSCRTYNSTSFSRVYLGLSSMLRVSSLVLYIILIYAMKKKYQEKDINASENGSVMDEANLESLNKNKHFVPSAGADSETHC

CC1(C)CCC(CN2CCN(c3ccc(C(=O)NS(=O)(=O)c4ccc(NCC5CCOCC5)c([N+](=O)[O-])c4)c(Oc4cnc5[nH]ccc5c4)c3)CC2)=C(c2ccc(Cl)cc2)C1 [Venetoclax]
IC50 (OATP1B1): 47.8 ± 10.1 µM | IC50 (BCRP): 19.6 ± 7.3 µM
